Results reported in patent publication US20210214560A1, “COMPOUND, COLORING COMPOSITION, INK, TONER, COLORING RESIN COMPOSITION, AND COMPOSITION FOR DYEING FIBER” (FUJIFILM Corporation, priority 2018, published 2021).

Tests used:
Format in all cases: physicochemical
[1] = Production of coloring resin composition (kneading with polybutylene terephthalate at 190° C.); settings: 1 g colorant with 100 g polybutylene terephthalate, biaxial extruder, cylinder temperature 190° C.
Description: Using a henschel mixer, a blend of 100 g of polybutylene terephthalate (manufactured by Wintech Polymer Ltd., trade name, DURANEX 2002, melting point: 225° C.) and 1 g of the compound according to the embodiment of the present invention (compound (1-48)) was supplied to a biaxial extruder (equipment: TEX28V manufactured by Japan Steel Works, Ltd., screw speed: 200 rotations per minute (rpm)), and kneading was performed at a cylinder temperature of 190° C. to obtain a coloring resin pellet (coloring resin composition). The torque of the extruder was stable and extrusion could be continued, and the discharged strands could be stably conveyed to the pelletizer.
A coloring resin pellet was obtained in the same manner as in Example 25, except that the compound (1-48) of Example 25 was changed to OIL BLACK HBB (manufactured by Orient Chemical Industries Co., Ltd., trade name).

[2] = Evaluation of maximum absorption wavelength (absorption spectrum in tetrahydrofuran solution); settings: 1×10^−6 mol/L, optical path length 10 mm (Table 7)
[3] = Evaluation of heat stability (heat resistance), powder heated at 180° C. for 5 minutes; settings: oven 180° C. for 5 minutes, A/A0×100, absorbance in tetrahydrofuran
Description: Heat stability of each compound was evaluated by the following procedure. 10 mg of the powder of each compound was dissolved in 500 mL of tetrahydrofuran, and the absorption spectrum was measured to obtain a reference absorbance (A0). On the other hand, 10 mg of the powder of each compound was weighed in a 4 cm square aluminum cup, placed in an oven, and heated at 180° C. for 5 minutes. The entire amount of the powder after heating was dissolved in 500 mL of tetrahydrofuran, and the absorption spectrum was measured to obtain an absorbance (A) after the heating test. The residual rate of each compound was calculated by the following expression to evaluate heat stability.
Residual rate of compound (%)=A/A0×100

[4] = Production of toner (melting and mixing with resin at 150° C.); settings: 3 g compound with 100 g styrene-acrylic acid ester copolymer, melted and mixed at 150° C.
Description: After mixing and pulverizing 3 g of the compound according to the embodiment of the present invention (compound (1-36)) and 100 g of a resin for toner [styrene-acrylic acid ester copolymer; HIMER TB-1000F (trade name, manufactured by Sanyo Chemical Industries, Ltd.)] with a ball mill, the resultant was heated at 150° C. to be melted and mixed, and the results were cooled, roughly pulverized using a hammer mill, and then finely pulverized using a fine pulverizer with an air-jet system. Furthermore, particles which have a particle diameter of 1 to 20 μm were classified and selected to produce a toner.
900 g of carrier iron powder (EFV250/400, trade name, manufactured by Powdertech Co., Ltd.) were uniformly mixed with 10 g of the toner to prepare a developer. Using this developer, copying was performed with a dry type plain paper electrophotographic copier [NP-5000, trade name, manufactured by Canon Inc.].

SMILES	Contamination due to pyrolysis in kneading of coloring resin pellet [1]	Absorption maximum wavelength [2] [nm]	Molar light absorption coefficient [2]	Residual rate of compound [3] [%]	Pyrolysis in melting and mixing in the toner production [4]
CC(=O)c1ccccc1N=Nc1ccc(N=Nc2ccc3c4c(cccc24)NC(C)(C)N3)c2ccccc12 [(1-48)]	No contamination due to pyrolysis was observed	624	34,100 L · mol^−1 · cm^−1	99	
CC1(C)Nc2cccc3c(N=Nc4ccc(N=Nc5ccccc5[N+](=O)[O-])c5ccccc45)ccc(c23)N1 [(1-36)]		638	30,100 L · mol^−1 · cm^−1	98	Pyrolysis in melting and mixing in the toner production was reduced
